Tests used:
Assay in all cases: relative viability (nuclei count vs DMSO), 5 days (fraction); higher = more cells survive
[1] = compound: CC1=C(C=CC(=C1)[N+](=O)[O-])NS(=O)(=O)C2=C(C=CC(=C2)Cl)Cl [FH535] + N=C(N)NC(=N)NCCc1ccccc1 [Phenformin] (partner 250 µM)
Method in brief: (§1)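 Values are medians from duplicate plates. Each reflects relative viability, defined as the nuclei count of treated wells over that of vehicle wells. Lung cancer cell lines in 1536-well plates were pin-tool dosed one day after seeding with one drug alone or with a fixed anchor-drug dose plus five library-drug doses (not always all listed) in √10 steps, then fixed, stained and imaged at 4× after 5 days.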

[2] = compound: CC1=C(C=CC(=C1)[N+](=O)[O-])NS(=O)(=O)C2=C(C=CC(=C2)Cl)Cl [FH535] + Nc1ncn([C@H]2C[C@H](O)[C@@H](CO)O2)c(=O)n1 [Decitabine] (partner 2 µM)
Method in brief: as §1

[3] = compound: CC1=C(C=CC(=C1)[N+](=O)[O-])NS(=O)(=O)C2=C(C=CC(=C2)Cl)Cl [FH535] + C[C@]1(O)C[C@@H](c2nc(-c3ccc4ccc(-c5ccccc5)nc4c3)c3c(N)nccn32)C1 [Linsitinib] (partner 1 µM)
Method in brief: as §1

[4] = compound: CC1=C(C=CC(=C1)[N+](=O)[O-])NS(=O)(=O)C2=C(C=CC(=C2)Cl)Cl [FH535] + CC(C)C[C@H](NC(=O)[C@H](Cc1ccccc1)NC(=O)c1cnccn1)B(O)O [Bortezomib] (partner 0.002 µM)
Method in brief: as §1

[5] = compound: CC1=C(C=CC(=C1)[N+](=O)[O-])NS(=O)(=O)C2=C(C=CC(=C2)Cl)Cl [FH535] + NC(=O)Nc1cc(-c2cccc(F)c2)sc1C(=O)N[C@H]1CCCNC1 [AZD7762] (partner 0.2 µM)
Method in brief: as §1

Cell Line | relative viability ([1]; first compound 0.04 µM) | relative viability ([1]; first compound 0.1265 µM) | relative viability ([1]; first compound 0.4 µM) | relative viability ([1]; first compound 1.265 µM) | relative viability ([2]; first compound 0.04 µM) | relative viability ([2]; first compound 0.1265 µM) | relative viability ([2]; first compound 0.4 µM) | relative viability ([2]; first compound 1.265 µM) | relative viability ([3]; first compound 0.04 µM) | relative viability ([3]; first compound 0.1265 µM) | relative viability ([3]; first compound 0.4 µM) | relative viability ([3]; first compound 1.265 µM) | relative viability ([4]; first compound 0.04 µM) | relative viability ([4]; first compound 0.1265 µM) | relative viability ([4]; first compound 0.4 µM) | relative viability ([4]; first compound 1.265 µM) | relative viability ([5]; first compound 0.04 µM) | relative viability ([5]; first compound 0.1265 µM) | relative viability ([5]; first compound 0.4 µM) | relative viability ([5]; first compound 1.265 µM)
201T | 0.402 | 0.45 | 0.397 | 0.321 | 0.824 | 0.842 | 0.872 | 0.652 | 1.05 | 1.03 | 0.95 | 0.964 | 1.02 | 1.05 | 1.1 | 1.03 | 0.594 | 0.728 | 0.62 | 0.696
A549 | 0.175 | 0.159 | 0.116 | 0.043 | 0.251 | 0.228 | 0.161 | 0.222 | 0.497 | 0.627 | 0.641 | 0.568 |  |  |  |  |  |  |  | 
A-427 | 0.272 | 0.331 | 0.215 | 0.135 | 0.545 | 0.593 | 0.549 | 0.576 | 1.13 | 1.18 | 1.07 | 0.981 | 0.967 | 0.982 | 0.829 | 0.908 | 0.768 | 0.795 | 0.768 | 0.622
ABC-1 | 0.263 | 0.209 | 0.184 | 0.179 | 1.07 | 0.997 | 0.994 | 1.01 | 0.963 | 0.836 | 0.864 | 0.788 | 0.331 | 0.26 | 0.33 | 0.34 | 0.706 | 0.664 | 0.756 | 0.549
BEN | 0.231 | 0.25 | 0.263 | 0.221 | 0.676 | 0.703 | 0.573 | 0.498 | 0.811 | 0.976 | 0.918 | 0.508 | 0.755 | 0.615 | 0.647 | 0.475 | 0.6 | 0.691 | 0.496 | 0.507
CAL-12T | 0.515 | 0.514 | 0.403 | 0.316 |  |  |  |  | 0.871 | 0.796 | 0.712 | 0.598 | 0.846 | 0.936 | 0.626 | 0.268 | 0.594 | 0.643 | 0.536 | 0.397
COR-L23 | 0.423 | 0.486 | 0.342 | 0.217 | 0.302 | 0.424 | 0.444 | 0.314 | 0.926 | 0.889 | 0.722 | 0.581 | 0.845 | 1.04 | 0.816 | 0.587 |  |  |  | 
COR-L 105 | 0.411 | 0.461 | 0.405 | 0.382 | 0.634 | 0.735 | 0.64 | 0.687 | 0.903 | 0.933 | 0.894 | 0.91 | 0.804 | 0.822 | 0.653 | 0.675 |  |  |  | 
ChaGo-K-1 | 0.462 | 0.554 | 0.428 | 0.384 | 0.496 | 0.517 | 0.54 | 0.377 |  |  |  |  | 0.915 | 1.24 | 0.95 | 0.589 | 0.797 | 0.927 | 0.771 | 0.729
EKVX | 0.238 | 0.223 | 0.173 | 0.153 | 0.373 | 0.413 | 0.331 | 0.27 | 1.03 | 1.05 | 0.967 | 0.854 | 1.04 | 0.762 | 1 | 0.704 | 0.77 | 0.661 | 0.631 | 0.559
EMC-BAC-2 | 0.416 | 0.554 | 0.46 | 0.359 | 0.885 | 1 | 0.985 | 0.892 | 0.822 | 0.873 | 0.771 | 0.753 | 0.961 | 1.13 | 1.06 | 1.03 | 0.828 | 1.06 | 1.04 | 0.985
EPLC-272H | 0.242 | 0.352 | 0.234 | 0.159 | 0.328 | 0.4 | 0.412 | 0.377 | 1.04 | 1.17 | 1.03 | 1.05 | 0.788 | 0.967 | 0.925 | 0.848 | 0.241 | 0.226 | 0.259 | 0.206
H3255 | 0.31 | 0.423 | 0.374 | 0.32 | 0.541 | 0.625 | 0.63 | 0.456 | 0.87 | 1.04 | 0.884 | 0.727 | 0.614 | 0.827 | 0.708 | 0.409 | 0.806 | 0.918 | 0.853 | 0.788
HARA | 0.398 | 0.368 | 0.269 | 0.205 | 0.578 | 0.475 | 0.552 | 0.414 | 0.774 | 0.889 | 1.03 | 0.584 | 1.03 | 0.987 | 1.11 | 0.73 | 0.19 | 0.426 | 0.305 | 0.358
HCC-15 | 0.432 | 0.443 | 0.343 | 0.213 | 0.58 | 0.58 | 0.604 | 0.451 | 0.879 | 0.862 | 0.884 | 0.595 | 0.975 | 0.874 | 0.896 | 0.713 | 1.18 | 1.21 | 1.06 | 1.13
HCC-44 | 0.242 | 0.191 | 0.125 | 0.176 | 0.896 | 0.938 | 0.845 | 0.835 | 0.704 | 0.647 | 0.705 | 0.469 | 0.952 | 0.811 | 0.856 | 0.652 | 1 | 0.961 | 0.898 | 0.866
HCC-78 | 0.626 | 0.783 | 0.63 | 0.592 | 0.541 | 0.673 | 0.573 | 0.529 | 0.456 | 0.557 | 0.558 | 0.527 | 0.475 | 0.471 | 0.593 | 0.434 | 0.644 | 0.888 | 0.618 | 0.468

Source: the supplement of paper PMC10307832
